From article PMC2748117 (Journal of medicinal chemistry, 2008)

Experiments:
KB cells [1] = test: Growth inhibition of KB tumor cells, with folate/nucleoside/AICA protection; type: cell-based, human
[2] = tested on: human folylpolyglutamate synthetase; conditions: ref [23]; cited from earlier work
human TS = conditions: ref [22], [23]; cited from earlier work
CCRF-CEM leukemia cell = conditions: supraphysiologic folate; protected by hypoxanthine, not thymidine; ref [22], [23]; cited from earlier work
KB cells [3] = test: Colony formation and reversibility assay with KB cells; conditions: 0.1 to 100 nM drug, 10 days
human DHFR = conditions: ref [22], [23]; cited from earlier work
KB cells [4] = test: Apoptosis assay, Annexin V-FITC flow cytometry; type: cell-based, human; conditions: 1 µM, 24 h, Annexin V positive cells
human RFC = test: Inhibition of RFC-mediated [3H]MTX uptake in PC43-10 cells; type: cell-based; conditions: unlabeled compound 10 µM, 0.5 µM [3H]MTX, 2 min, 37°C

Nc1nc2[nH]c(CCCc3ccc(C(=O)N[C@@H](CCC(=O)O)C(=O)O)cc3)cc2c(=O)[nH]1 [Compound 2]
Effect of thymidine on growth inhibitory activity toward KB cells (KB cells [1]; 10 µM thymidine): no effect | Effect of adenosine on growth inhibition of KB cells (KB cells [1]; 60 µM adenosine): completely reversed | Protection by AICA from growth inhibitory effects in KB cells (KB cells [1]; 192 µM AICA): completely protected | Substrate activity for polyglutamylation [2]: excellent substrates | Inhibition of purified human TS (human TS): poor inhibitors | Inhibition of CCRF-CEM leukemia cell growth (CCRF-CEM leukemia cell): modest inhibitors | Inhibition of colony formation, continuous exposure (KB cells [3]): more potent inhibitors than either compound 4 or MTX | Inhibition of purified human DHFR (human DHFR): poor inhibitors

Nc1nc2[nH]c(CCCCc3ccc(C(=O)N[C@@H](CCC(=O)O)C(=O)O)cc3)cc2c(=O)[nH]1 [Compound 3, N-{4-[4-(2-Amino-4-oxo-4,7-dihydro-3H-pyrrolo[2,3-d]pyrimidin-6-yl)butyl]benzoyl}-L-glutamic Acid]
Increase of IC50 between 2 nM and 20 nM LCV (KB cells [1]; KB cells, folate-free media, 20 nM versus 2 nM leucovorin): approximately 3 fold | Increase of IC50 at 40 nM LCV (KB cells [1]; KB cells, folate-free media, 40 nM versus 2 nM leucovorin): ~6 fold | Substrate activity for polyglutamylation [2]: excellent substrates | Inhibition of purified human TS (human TS): poor inhibitors | Inhibition of CCRF-CEM leukemia cell growth (CCRF-CEM leukemia cell): modest inhibitors | Inhibition of colony formation, continuous exposure (KB cells [3]): more potent inhibitors than either compound 4 or MTX | Inhibition of purified human DHFR (human DHFR): poor inhibitors

COc1cccc2c1C(=O)c1c(O)c3c(c(O)c1C2=O)C[C@@](O)(C(C)=O)C[C@@H]3O[C@H]1C[C@H](N)[C@H](O)[C@H](C)O1 [daunorubicin]
Apoptosis level relative to the antifolate drugs (KB cells [4]): 4 factor

Nc1nc(=O)c2nc(CNc3ccc(C(=O)N[C@@H](CCC(=O)O)C(=O)O)cc3)cnc2[nH]1 [folic acid]
Inhibition of [3H]MTX uptake (human RFC): < 20%
